# Assay results taken from publication PMC3112249 (Cancer chemotherapy and pharmacology, 2011).
# Experiments:
# [1] = cited from earlier work
# [2] = format: in vivo, human; details: paclitaxel 100 mg/m^2 IV over 3 h, cycle 1; patients taking protease inhibitors
# [3] = system: HIV-associated Kaposi's sarcoma; test: Objective response, progression-free survival and survival on paclitaxel; format: in vivo, human
# [4] = 107 male patients, paclitaxel 100 mg/m^2 intravenously over 3 hours every 2 weeks, 77% received protease inhibitors; cited from earlier work
# [5] = 20 evaluable patients, no prior paclitaxel, 100 mg/m^2 IV every 14 days
compound,measurement,setting,value
COc1cccc2c1C(=O)c1c(O)c3c(c(O)c1C2=O)C[C@@](O)(C(=O)CO)C[C@@H]3O[C@H]1C[C@H](N)[C@H](O)[C@H](C)O1 [doxorubicin],effects on clearance,"[1]; human, in vivo",No significant effects
O=P1(N(CCCl)CCCl)NCCCO1 (centres unmarked) [cyclophosphamide],clearance reduced compared to historical controls,[1]; 29 patients receiving CHOP chemotherapy with HAART,1.5 fold
CC(=O)O[C@H]1C(=O)[C@@]2(C)[C@H]([C@H](OC(=O)c3ccccc3)[C@]3(O)C[C@H](OC(=O)[C@H](O)[C@@H](NC(=O)c4ccccc4)c4ccccc4)C(C)=C1C3(C)C)[C@]1(OC(C)=O)CO[C@@H]1C[C@@H]2O [Paclitaxel],duration spent at a paclitaxel concentration > 0.05 μM,[2],19.0 (3.0–27.8) hr
same,"best response: partial response, patients",[3]; [5],30%
same,"best response: progressive disease, patients",[3]; [5],10%
same,"best response: stable disease (SD), patients",[3]; [5],50%
same,"objective response, patients",[3]; 20 patients assessable for response,30%
same,three year survival rate,"[3]; 20 patients, no prior paclitaxel",67%
same,median progression free survival,"[3]; 20 patients, no prior paclitaxel, 100 mg/m^2 IV every 14 days",7.8 months
same,median overall survival,"[3]; 20 patients, no prior paclitaxel, median follow-up of 50 months in the 13 surviving patients",had not been reached
same,"treatment-related infection of grade 3 or higher, patients","20 patients, paclitaxel as first line therapy",15%
same,"Infection Grade 3, patients no. (%)",PI (n=15),3 (20%)
same,"Abdominal cramps Grade 3, patients no. (%)","human, in vivo",1 (7%)
same,"Anemia Grade 3, patients no. (%)","human, in vivo",2 (13%)
same,"Anemia Grade 4, patients no. (%)","human, in vivo",1 (7%)
same,"Cardiac toxicity Grade 4, patients no. (%)","human, in vivo",1 (5%)
same,"Eye irritation Grade 3, patients no. (%)","human, in vivo",1 (7%)
same,"Fatigue Grade 3, patients no. (%)","human, in vivo",2 (13%)
same,"GU toxicity Grade 3, patients no. (%)","human, in vivo",1 (7%)
same,"Granulocytopenia Grade 3, patients no. (%)","human, in vivo",3 (20%)
same,"Ileus Grade 4, patients no. (%)","human, in vivo",1 (7%)
same,"Leukopenia Grade 4, patients no. (%)","human, in vivo",1 (20%)
same,"Liver toxicity Grade 3, patients no. (%)","human, in vivo",1 (7%)
same,"Liver toxicity Grade 4, patients no. (%)","human, in vivo",1 (7%)
same,"Metabolic toxicity Grade 3, patients no. (%)","human, in vivo",1 (7%)
same,"Metabolic toxicity Grade 4, patients no. (%)","human, in vivo",1 (7%)
same,"Neuro-motor toxicity Grade 3, patients no. (%)","human, in vivo",1 (7%)
same,"Pulmonary toxicity Grade 3, patients no. (%)","human, in vivo",1 (7%)
same,"Pulmonary toxicity Grade 4, patients no. (%)","human, in vivo",1 (20%)
same,"Skin toxicity Grade 3, patients no. (%)","human, in vivo",1 (20%)
same,"Thrombocytopenia Grade 4, patients no. (%)","human, in vivo",1 (7%)
same,"WORST DEGREE of toxicity Grade 3, patients no. (%)","human, in vivo",7 (47%)
same,"treatment-related anemia of grade 3 or higher, patients","human, in vivo",15%
same,"treatment-related granulocytopenia of grade 3 or higher, patients","human, in vivo",40%
same,"differences in the incidence or severity of toxicity, patients receiving protease inhibitors compared to those who did not",[4],No differences
